Reference: patent US9939427B2, “Method for evaluating the scent performance of perfumes or perfume mixtures” (Symrise AG, priority 2013, dated 2018)

Biological target: T1, OR10Q1 (Homo sapiens, UniProt Q8NGQ4)
T1 construct: specific primers, which amplify the complete open reading frame; expressed in transfected cells; host or cells: HEK293
T1 sequence (Q8NGQ4 1-319): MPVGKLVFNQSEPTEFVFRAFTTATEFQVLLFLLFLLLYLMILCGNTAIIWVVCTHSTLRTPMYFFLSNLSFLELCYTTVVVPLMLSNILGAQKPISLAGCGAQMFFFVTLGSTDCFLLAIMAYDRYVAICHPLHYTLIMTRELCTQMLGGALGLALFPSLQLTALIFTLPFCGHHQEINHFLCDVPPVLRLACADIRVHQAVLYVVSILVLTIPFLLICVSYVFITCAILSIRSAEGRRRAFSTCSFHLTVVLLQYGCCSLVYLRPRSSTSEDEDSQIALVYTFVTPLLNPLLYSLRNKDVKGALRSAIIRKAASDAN
Experiment: CRE-luciferase assay, OR10Q1 in HANA3A cells
Type: cell-based
Settings: 50 μM, 100 μM, 150 μM, 200 μM and 250 μM; ratio of firefly to renila
Procedure: Calcium cations and phosphate anions created crystal precipitations coupled with DNA which could invade into the cells through endocytosis. Cells were transiently transfected with plasmid DNA which consists of pCI expression vector and PCR-amplified full-length cDNA of olfactory receptors candidates, and also Gα15, RTP1, Myr-Ric8A, HSC70, and m-Cherry as cofactors. The precipitation could be created after 15-20 min, with dropping the transfection solution on HEK293 cells. Before measuring by Ca-imaging cells were incubated 48-60 hours at 370 C, 5% CO2. Cationic liposome-mediated transfection method was applied to transfect DNA plasmid transiently in HANA3A cells in case of CRE-Luciferase and CRE-SEAP assays. […]
ORs responded by Ca-imaging with seven separate odorant mixtures formed from 66 odorants. […] Transfected HANA3A cells on poly-D-lysine-coated 96 well plates are ready for stimulation after 24 h. […] Measuring by plate reader (Luminometer). • 6. […] Measuring by plate reader (Luminometer). • 8. According to manufacturer's protocols for measuring luciferase and renilla activities, calculate normalized luciferase activity with using the formula (Ln-Lmin)/(Lmax-Lmin), where Ln is the luminescence of firefly in response to the odorant, L min is the minimum luciferase value on a plate, and L max is the maximum luciferase value on plate. […]

CRE-luciferase (cAMP assay) response of OR10Q1: positive responses
SMILES: O=C1CCCCCCCCCCCCCCO1 [Pentadecanolide, ω-cyclopentadecanolide]
